# Reference: ChEMBL document CHEMBL5360534, “Synthetic α-glucosidase inhibitors as promising anti-diabetic agents: Recent developments and future challenges” (Eur J Med Chem, 2023)
# Biological target: T1, Alpha-glucosidase (Saccharomyces cerevisiae S288c, UniProt P53341+P38158+P07265)
# Assay: Inhibition of Saccharomyces cerevisiae alpha-glucosidase using p-nitrophenyl-alpha-D-glucopyranoside as substrate preincubated for 5 mins followed by alpha-glucosidase addition and measured after 15 mins by UV-visible spectrophotometric analysis
# Format: protein assay
row,IC50,Compound
1,4.7 µM,O=C(NNS(=O)(=O)c1ccc(Br)cc1)c1cc2cc(F)ccc2[nH]1
2,3.2 µM,O=C(NNS(=O)(=O)c1cccc(F)c1)c1cc2cc(F)ccc2[nH]1
3,11.02 µM,O=C(c1ccccc1)c1ccc2nc(-c3ccc(O)cc3)[nH]c2c1
4,6.2 µM,N#Cc1ccc(S(=O)(=O)NNC(=O)c2cc3cc(F)ccc3[nH]2)cc1
5,3.2 µM,O=C(NNS(=O)(=O)c1ccccc1F)c1cc2cc(F)ccc2[nH]1
6,7.4 µM,O=C(NNS(=O)(=O)c1cccc(Cl)c1)c1cc2cc(F)ccc2[nH]1

# Biological target: T1, Alpha-glucosidase
# Assay: Inhibition of Saccharomyces cerevisiae alpha-glucosidase using p-nitrophenyl-alpha-D-glucopyranoside as substrate preincubated for 15 mins followed by substrate addition and measured after 30 mins by spectrophotometric analysis
# Format: protein assay
row,Compound,IC50
1,CC(C)(C)c1ccc(Cn2cc(CCS3=Nc4cc(Cl)ccc4C3)nn2)cc1 (stereo not drawn),20.7 µM
2,CC(=O)CC(c1ccc(Br)cc1)C(C(=O)Nc1ccccn1)C(=O)Nc1ccccn1 (stereo not drawn),12.8 µM
3,O=C1Nc2ccccc2C1(c1cn(Cc2ccccc2F)c2ccccc12)c1cn(Cc2ccccc2F)c2ccccc12,5.98 µM

# Continued, values first:
row,IC50,Compound
1,19.6 µM,Cc1ccc(-c2cc(-c3ccc(Br)cc3)nc(SCc3ccc(Cl)cc3)n2)cc1
2,2.85 µM,COc1ccc(-c2csc(NC(=O)CSc3nnc(-c4ccc(Br)cc4)c(-c4ccc(Br)cc4)n3)n2)cc1

# Biological target: not listed separately
# Assay: Inhibition of alpha-glucosidase (unknown origin) using p-nitrophenyl-alpha-D-glucopyranoside as substrate preincubated for 5 mins followed by substrate addition and measured after 5 mins by spectrophotometric analysis
# Set-up: species or system Homo sapiens
row,IC50,Compound
1,2.7 µM,Nc1nnc(-c2ccc(O)cc2)s1
2,2.2 µM,COc1ccc(/C(CSc2nc3ccccc3[nH]2)=N/N=C/c2ccc(OC)cc2O)cc1

# Biological target: not listed separately
# Assay: Inhibition of Saccharomyces cerevisiae alpha-glucosidase type I using p-nitrophenyl-alpha-D-glucopyranoside as substrate preincubated for 10 mins followed by substrate addition and measured after 30 mins by spectrophotometric analysis
row,IC50,Compound
1,12.7 µM,O=c1c2ccccc2n2ncnc2n1OCc1ccccc1
2,83.9 µM,CS(=O)(=O)n1c(=O)c2ccccc2n2ncnc12
3,28.5 µM,CCn1c(=O)c2ccccc2n2ncnc12
4,45.6 µM,C/C=C/n1c(=O)c2ccccc2n2ncnc12
5,72.3 µM,CSn1c(=O)c2ccccc2n2ncnc12

# Biological target: T1, Alpha-glucosidase
# Assay: Inhibition of Saccharomyces cerevisiae alpha-glucosidase
# Format: protein assay
row,IC50,Compound
1,94.2 µM,O=C(COc1ccc2ccc(=O)oc2c1)N/N=C\c1cc([N+](=O)[O-])ccc1OCCCN1C(=O)c2ccccc2C1=O
2,85.2 µM,O=C(N/N=C\c1ccccc1OCCCN1C(=O)c2ccccc2C1=O)c1cc2ccccc2oc1=O
3,29.91 µM,Cc1cc2nc(NC(=O)CN3C(=O)S/C(=C\c4ccc(Cl)cc4)C3=O)sc2cc1C
4,13.09 µM,Clc1ccc(/C=N/Nc2nnc(-c3ccccc3)c(-c3ccccc3)n2)cc1

# Biological target: T1, Alpha-glucosidase
# Assay: Competitive inhibition of Saccharomyces cerevisiae alpha-glucosidase using pNPG as substrate assessed as inhibition constant preincubated for 15 mins followed by substrate addition and measured after 20 mins by spectrophotometric analysis
# Format: protein assay
row,Compound,Ki
1,Cc1ccc(-n2cc(/C=N/NC(=O)Nc3ccccc3)c(-c3ccc([N+](=O)[O-])cc3)n2)cc1,87 µM
2,Cc1ccc(C(c2c(N)c3ccccc3oc2=O)c2c(N)c3ccccc3oc2=O)cc1,22.4 µM
3,Cc1ccc(-c2nc3c(C(=O)Nc4ccccc4)c(Nc4ccccc4)nn3c(-c3ccc(Br)cc3)c2N)cc1,12 µM

# Further lines, results first:
row,Ki,Compound
1,86.3 µM,O=C(COc1ccc(-c2nc(-c3ccccc3)c(-c3ccccc3)[nH]2)cc1)Nc1cccc(Br)c1
2,56 µM,O=C(Cn1c(-c2ccc(Cl)cc2)nc2ccccc2c1=O)N/N=C/c1cn(-c2ccccc2)nc1-c1ccc(Br)cc1

# Biological target: not listed separately
# Assay: Inhibition of alpha-glucosidase (unknown origin)
# Set-up: species or system Homo sapiens
row,Compound,IC50
1,OCCN1C[C@H](O)[C@@H](O)[C@H](O)[C@H]1CO [MIGLITOL],0.39 µM
2,Cc1cc([N+](=O)[O-])ccc1-c1cnc(CC(C)C)s1,7.17 µM
3,O=C1C(=O)N(Cc2cn(CN3C(=O)S/C(=C\c4ccco4)C3=O)nn2)c2ccccc21,24.7 µM
4,COc1ccc(/C=N/n2c(COc3ccccc3)nnc2SCCO)cc1,1.49 µM
5,CCn1cc(C(=O)OCc2ccccc2Br)c(=O)c2cc(F)c(N3CCN(Cc4ccccc4Br)CC3)nc21,45.8 µM
6,CCOP(=O)(OCC)C(Nc1ccc(C(F)(F)F)cc1I)c1cc(OC)c(O)c(OC)c1 (stereo not drawn),94.5 µM
7,O=C(N/N=C/c1ccc(Cl)cc1)c1cc(-c2ccccc2)[nH]n1,60.5 µM
8,Nc1nnc(-c2cccc3cccc(O)c23)o1,0.8 µM
9,Cc1ccc(-c2cc(C(F)(F)F)nn2-c2ccc(S(=O)(=O)NC(=O)c3ccc(C)c([N+](=O)[O-])c3)cc2)cc1,92.3 µM
10,O=[N+]([O-])c1ccc(S(=O)(=O)Oc2ccc(/C=C/c3nc4ccccc4nc3O)cc2)cc1,32 µM
11,OC[C@H]1CC2C(N=NN2c2ccccc2)[C@@H](O)C1O (stereo partly drawn),74 µM
12,OC[C@H]1NC[C@H](O)[C@@H](O)[C@@H]1O [DUVOGLUSTAT],426 µM
13,Nc1ccc2c(-c3nc4ccc(Br)c(O)c4s3)cc(=O)oc2c1,6.32 µM
14,COc1cc(OC)c(Br)c(-c2nc3ccc(Br)cc3[nH]2)c1,8.15 µM
15,OCCSc1nnc(COc2ccccc2)n1/N=C/c1ccc(O)cc1,1.49 µM
16,CCOC(=O)C1=C(C)NC2=C(C(=O)CC(C)(C)C2)C1c1cc(OC)c(OC)cc1Br (stereo not drawn),2.31 µM
17,CC(C)Cc1ccc(C(C)c2nnc(SC/C(=N\c3ccc(Cl)c(Cl)c3)c3ccccc3)o2)cc1 (stereo not drawn),3.05 µM
18,CN(C)c1ccc(-c2ccc(/C=N/n3c(COc4ccccc4)nnc3SCCO)cc2)cc1,1.49 µM

# Continued, values first:
row,IC50,Compound
1,28 µM,COc1cccc(/C=C/c2nc(-c3ccccc3)c3cc(Cl)ccc3n2)c1OS(=O)(=O)c1ccc([N+](=O)[O-])cc1
2,3.6 µM,CCOC(=O)c1c(-c2ccc(/C=C3/SC(=O)NC3=O)cc2)c2ccccc2n1Cc1ccc(Cl)cc1
3,0.91 µM,CCOC(=O)c1c(-c2ccc(/C=C3/SC(=S)NC3=O)cc2)c2ccccc2n1Cc1ccccc1
4,118 µM,Cc1cccc(-n2c(-c3ccc(Cl)cc3)cc(C(=O)Nc3ccncc3)c2C)c1
5,1.02 µM,Cc1ccoc1-c1cccc(/C=N/NC(=O)c2ccc(-c3cc(=O)c4cc(O)ccc4o3)cc2)c1
6,610 µM,COc1ccc(-n2c(SCC(=O)N/N=C/c3ccc(Cl)cc3)nc3ccccc3c2=O)cc1
7,4.3 µM,O=C(CC(c1cc(Cl)ccc1Cl)c1c[nH]c2ccccc12)c1ccccc1 (stereo not drawn)
8,6.3 µM,COc1ccc(-c2coc3cc(OCC(=O)c4ccc(Cl)cc4)ccc3c2=O)cc1
9,1.1 µM,O=C(NNS(=O)(=O)c1ccccc1Cl)c1ccc(-c2nnc(-c3ccc([N+](=O)[O-])cc3)o2)cc1
10,0.51 µM,CCOC(=O)c1c(-c2ccc(/C=C3/SC(=S)NC3=O)cc2)c2ccccc2n1Cc1ccc(Cl)cc1
11,5.3 µM,CCOC(=O)c1c(-c2ccc(/C=C3/SC(=O)NC3=O)cc2)c2ccccc2n1Cc1ccccc1
12,0.5 µM,Oc1c(Cl)cc(Cl)cc1/C=N/c1nc(-c2ccc(-c3ccccc3)cc2)cs1
13,85 µM,O=C(CSc1nc2ccccc2c(=O)n1-c1cccc(Br)c1)c1ccc([N+](=O)[O-])cc1

# Biological target: T1, Alpha-glucosidase
# Assay: Inhibition of Saccharomyces cerevisiae alpha-glucosidase using pNPG as substrate preincubated for 10 mins followed by substrate addition and measured after 20 mins by spectrophotometric analysis
# Format: protein assay
row,Compound,IC50
1,O=C(CSC(=S)Nc1cccc([N+](=O)[O-])c1)c1cc2ccccc2oc1=O,85 µM
2,Fc1ccc(C2=NOC(c3ccccc3)N2c2ccc(F)cc2)cc1 (stereo not drawn),256 µM
3,Cc1ccc(C(c2c(N)c3ccccc3oc2=O)c2c(N)c3ccccc3oc2=O)cc1,20 µM
4,O=C1Cc2ccccc2C(O)C1C(c1ccc(OCc2cn(Cc3ccccc3Cl)nn2)cc1)c1c(O)c2ccccc2oc1=O (stereo not drawn),13 µM
5,Cc1ccccc1Cn1cc(COc2ccc(C(c3c(O)c4ccccc4oc3=O)C3C(=O)Cc4ccccc4C3O)cc2)nn1 (stereo not drawn),16.4 µM

# The next lines start with the values.
row,IC50,Compound
1,90 µM,O=C(COc1ccc(-c2nc(-c3ccccc3)c(-c3ccccc3)[nH]2)cc1)Nc1cccc(Br)c1
2,295 µM,COc1ccc(C2=NOC(c3ccccc3)N2c2ccc(OC)cc2)cc1 (stereo not drawn)

# Biological target: T1, Alpha-glucosidase
# Assay: Inhibition of Saccharomyces cerevisiae alpha-glucosidase using p-nitrophenyl glucopyranoside as substrate preincubated for 10 mins followed by substrate addition and measured after 20 mins by spectrophotometric analysis
# Format: protein assay
row,Compound,IC50
1,COc1ccc(CCn2c(SCc3cn(Cc4ccc(Br)cc4)nn3)nc3ccccc3c2=O)cc1OC,192.3 µM
2,CCOC(=O)c1c(-c2ccccc2)nn2c1C=C(c1ccc(O)c(OC)c1)/C2=N/C1CCCCC1,95 µM
3,Nc1c(-c2ccccc2)nc2nc3cc(Cl)c(Cl)cc3n2c1-c1ccccc1,16.4 µM
4,COc1cccc2cc(-c3nnc(SCc4cn(CC(=O)NCc5ccc(F)cc5)nn4)o3)oc12,40.7 µM
5,Cc1ccc(-n2cc(/C=N/NC(=O)Nc3ccccc3)c(-c3ccc([N+](=O)[O-])cc3)n2)cc1,65.1 µM
6,Cc1ccc(-c2nc3c(C(=O)Nc4ccccc4)c(Nc4ccccc4)nn3c(-c3ccc(Br)cc3)c2N)cc1,15.2 µM

# Next, values leading:
row,IC50,Compound
1,45.3 µM,O=C(Cn1cc(COc2ccc(-c3nc4ccccc4c(=O)[nH]3)cc2)nn1)Nc1ccccc1
2,60.5 µM,O=C(Cn1c(-c2ccc(Cl)cc2)nc2ccccc2c1=O)N/N=C/c1cn(-c2ccccc2)nc1-c1ccc(Br)cc1
